Laboratory results from patent US20250143290A1, “AGROCHEMICAL COMPOSITION COMPRISING AT LEAST ONE AGROCHEMICAL ACTIVE COMPONENT AND A SOLVENT” (MINAGRO SRL, priority 2022, published 2025).

Assays:
[1] = Hansen and Hildebrand solubility parameters
Text: The Hansen solubility parameters are used for predicting if one material will dissolve in another and form a (homogeneous) solution.
Furthermore, solvents with similar Hansen solubility parameters will have similar solubility characteristics, including which agrochemical active components will and which agrochemical active components will not dissolve in the solvents.

physchem = details: for solubility: organic solvent or mixture, thermodynamic from solid
Text: Said saturated solutions were subsequently analyzed by HPLC to determine the agrochemical active component concentration. The samples were centrifuged and filtered twice through 1.6 and 0.45 μm filters to remove any extraneous material prior to analysis.
For each combination of agrochemical active component, a calibration curve was established to plot the instrumental response, e.g., the analytical signal, changes with the concentration of the agrochemical active component.

Lactuca sativa = assay: Phytotoxicity study on lettuce; assay type: in vivo; details: lettuce Lucrecia RZ sprayed until saturation at 1%, 2%, 5% and 10%; 5 and 10 days after spraying
Protocol: The aim of this experiment is to determine if these solvents can cause phytotoxicity on lettuce at different concentrations. Lettuce of the Lucrecia RZ variety was sown in potting soil and transplanted into 3L pots. For each of the solvents, four concentrations were tested: 1%, 2%, 5% and 10%. A control (water) was also performed. […] Fifteen replicates per treatment were conducted. A monitoring of the appearance of potential spots due to phytotoxicity is carried out 5 days and 10 days after spraying.

[2] = test system: microorganisms of the inoculum
Protocol: The test duration is 28 days. The vessels contained 250 ml of the inoculated buffered mineral salt medium and the test material (test substance or reference substance) as the sole carbon source. To each test series blanks (without test material) were set up to run in parallel. Incubation was conducted at 22±1° C. in diffuse light and agitation by magnetic stirrers. All analyses were conducted at least in duplicate. Oxygen consumption was continuously measured with a respirometer. The amount of oxygen taken up by the microorganisms during biodegradation (biological oxygen demand; BOD) is compared with the chemical oxygen demand (COD) of the test substance. The percent biodegradation of the test substance is calculated from the BOD in relation to the COD or alternative of the theoretical oxygen demand (ThOD) of the test substance. The test material (92 mg/L) was distributed in a thin layer on an inert carrier (glass fiber filter) and added directly to the aqueous medium.

Row | Structure (SMILES) | Hansen Solubility Parameters δd [1] [J/mL] | Hansen Solubility Parameters δn [1] [J/mL] | Hansen Solubility Parameters δp [1] [J/mL] | Hildebrand δ [1] [J/mL] | other results
1 | O=C1CCCCC1 [Cyclohexanone] | 17.8 | 5.1 | 6.3 | 19.56 | 
2 | CCOC(C)=O [Ethyl Acetate] | 15.8 | 7.2 | 5.3 | 18.15 | 
3 | Nc1c(Cl)c(F)nc(OCC(=O)O)c1Cl [Fluroxypyr] |  |  |  |  | Solubility in saturation (physchem): 546.25 mg/mL; solubility (physchem; Solubility in saturation): 537 mg/mL
4 | CC1=CC(=O)CC(C)(C)C1 [Isophorone] | 16.6 | 7.4 | 8.2 | 19.94 | 
5 | CC1(C)CCC(Cc2ccc(Cl)cc2)C1(O)Cn1cncn1 (stereo not shown) [Metconazole] |  |  |  |  | solubility (physchem; Solubility in saturation): 210 mg/mL
6 | COC(=O)Nc1cccc(OC(=O)Nc2cccc(C)c2)c1 [Phenmidipham] |  |  |  |  | Solubility in saturation (physchem; in n-butyl THF, saturated solution MT 181, HPLC, pure active ingredient): 35.66 mg/mL; Solubility in saturation (physchem; in t-butyl THF, saturated solution MT 181, HPLC, pure active ingredient): 37.11 mg/mL
7 | OC(Cc1ccccc1Cl)(Cn1nc[nH]c1=S)C1(Cl)CC1 (stereo not shown) [Prothioconazole] |  |  |  |  | solubility (physchem): 341 mg/mL
8 | CC(COc1ccc(Oc2ccccc2)cc1)Oc1ccccn1 (stereo not shown) [Pyriproxyfen] |  |  |  |  | solubility (physchem; Solubility in saturation): 631 mg/mL
9 | OCC1CCCO1 (stereo not shown) [THFA TetraHydroFurfurylAlcohol, TetraHydroFurfurylAlcohol] | 17.8 | 10.2 | 8.2 | 22.09 | 
10 | CC(C)(C)C(O)(CCc1ccc(Cl)cc1)Cn1cncn1 (stereo not shown) [Tebuconazole] |  |  |  |  | solubility (physchem; Solubility in saturation): 181 mg/mL; solubility (physchem; t-butyl THF, Solubility in saturation, in t-butyl THF, saturated solution MT 181, HPLC, pure active ingredient): 188 mg/mL
11 | CCCCOCC1CCCO1 (stereo not shown) [n-butyl THF, 2-(butoxymetyl)tetrahydrofuraan] | 16.47 | 5.96 | 4.74 | 18.15 | phytotoxicity on salads (spots) (Lactuca sativa): absence of phytotoxicity; inhibition of the microorganisms of the inoculum [2]: non-inhibitory
12 | CCCCOC(C)=O [n-butyl acetate] | 15.8 | 6.3 | 3.7 | 17.41 | 
13 | Cc1ccc(C)cc1 [p-Xylène] | 17.6 | 3.1 | 1 | 17.90 | 
14 | CC(C)(C)OCC1CCCO1 (stereo not shown) [t-butyl THF, 2-(tert-Butoxymethyl)tetrahydrofuran] |  |  |  |  | phytotoxicity on salads (spots) (Lactuca sativa): absence of phytotoxicity
